According to patent US20100003191A1, “AURONE DERIVATIVE-CONTAINING COMPOSITION FOR DIAGNOSIS” (NAGASAKI UNIVERSITY, priority 2006, published 2010):

Test: In vivo radioactivity biodistribution experiment in normal mice (Example 1, Table 13)
Set-up: species or system ddY mice
Method: ^125I-labeled compounds were diluted with 10% ethanol-containing physiological saline. […] After their blood was collected, organs were removed, and the weights and radioactivities thereof were measured.
When any of the aurone derivatives was used, sufficient radioactivity to perform imaging of intracerebral amyloid migrated to the brain from the early stage of injection (1.7-4.6% ID/g). […] It was also shown that, in any of the aurone derivatives, in vivo radioactivity behavior is discharged mainly from the liver to the bile duct and the intestinal tract.

CN(C)c1ccc(/C=C2\Oc3ccc([125I])cc3C2=O)cc1 [[^125I]7]
Biodistribution of radioactivity, Blood (2 min after injection): 2.69 (0.29) % injected dose per gram
Biodistribution of radioactivity, Blood (10 min after injection): 1.96 (0.34) % injected dose per gram
Biodistribution of radioactivity, Blood (30 min after injection): 1.48 (0.15) % injected dose per gram
Biodistribution of radioactivity, Blood (60 min after injection): 0.94 (0.25) % injected dose per gram
Biodistribution of radioactivity, Brain (2 min after injection): 1.89 (0.38) % injected dose per gram
Biodistribution of radioactivity, Brain (10 min after injection): 0.69 (0.21) % injected dose per gram
Biodistribution of radioactivity, Brain (30 min after injection): 0.26 (0.04) % injected dose per gram
Biodistribution of radioactivity, Brain (60 min after injection): 0.11 (0.03) % injected dose per gram
Biodistribution of radioactivity, Heart (2 min after injection): 3.80 (0.66) % injected dose per gram
Biodistribution of radioactivity, Heart (10 min after injection): 1.36 (0.66) % injected dose per gram
Biodistribution of radioactivity, Heart (30 min after injection): 0.55 (0.29) % injected dose per gram
Biodistribution of radioactivity, Heart (60 min after injection): 0.45 (0.11) % injected dose per gram
Biodistribution of radioactivity, Intestine (2 min after injection): 1.65 (0.35) % injected dose per gram
Biodistribution of radioactivity, Intestine (10 min after injection): 5.37 (1.10) % injected dose per gram
Biodistribution of radioactivity, Intestine (30 min after injection): 9.50 (1.45) % injected dose per gram
Biodistribution of radioactivity, Intestine (60 min after injection): 11.85 (2.70) % injected dose per gram
Biodistribution of radioactivity, Kidney (2 min after injection): 7.84 (1.92) % injected dose per gram
Biodistribution of radioactivity, Kidney (10 min after injection): 8.31 (3.19) % injected dose per gram
Biodistribution of radioactivity, Kidney (30 min after injection): 10.37 (2.34) % injected dose per gram
Biodistribution of radioactivity, Kidney (60 min after injection): 4.51 (1.43) % injected dose per gram
Biodistribution of radioactivity, Liver (2 min after injection): 10.21 (1.87) % injected dose per gram
Biodistribution of radioactivity, Liver (10 min after injection): 7.86 (2.25) % injected dose per gram
Biodistribution of radioactivity, Liver (30 min after injection): 5.60 (0.59) % injected dose per gram
Biodistribution of radioactivity, Liver (60 min after injection): 4.33 (0.76) % injected dose per gram
Biodistribution of radioactivity, Lung (2 min after injection): 4.02 (0.83) % injected dose per gram
Biodistribution of radioactivity, Lung (10 min after injection): 2.44 (0.54) % injected dose per gram
Biodistribution of radioactivity, Lung (30 min after injection): 1.51 (0.41) % injected dose per gram
Biodistribution of radioactivity, Lung (60 min after injection): 1.17 (0.26) % injected dose per gram
Biodistribution of radioactivity, Pancreas (2 min after injection): 3.17 (0.68) % injected dose per gram
Biodistribution of radioactivity, Pancreas (10 min after injection): 1.04 (0.25) % injected dose per gram
Biodistribution of radioactivity, Pancreas (30 min after injection): 0.55 (0.21) % injected dose per gram
Biodistribution of radioactivity, Pancreas (60 min after injection): 0.30 (0.06) % injected dose per gram
Biodistribution of radioactivity, Spleen (2 min after injection): 1.76 (0.28) % injected dose per gram
Biodistribution of radioactivity, Spleen (10 min after injection): 0.81 (0.54) % injected dose per gram
Biodistribution of radioactivity, Spleen (30 min after injection): 0.51 (0.10) % injected dose per gram
Biodistribution of radioactivity, Spleen (60 min after injection): 0.37 (0.11) % injected dose per gram
Biodistribution of radioactivity, Stomach (2 min after injection): 1.21 (0.29) % injected dose per organ
Biodistribution of radioactivity, Stomach (10 min after injection): 1.35 (1.25) % injected dose per organ
Biodistribution of radioactivity, Stomach (30 min after injection): 1.87 (0.79) % injected dose per organ
Biodistribution of radioactivity, Stomach (60 min after injection): 1.51 (1.04) % injected dose per organ

Nc1ccc(/C=C2\Oc3ccc([125I])cc3C2=O)cc1 [[^125I]14]
Biodistribution of radioactivity, Blood (2 min after injection): 3.64 (0.78) % injected dose per gram
Biodistribution of radioactivity, Blood (10 min after injection): 4.38 (0.52) % injected dose per gram
Biodistribution of radioactivity, Blood (30 min after injection): 2.87 (0.82) % injected dose per gram
Biodistribution of radioactivity, Blood (60 min after injection): 2.35 (1.38) % injected dose per gram
Biodistribution of radioactivity, Brain (2 min after injection): 4.57 (0.27) % injected dose per gram
Biodistribution of radioactivity, Brain (10 min after injection): 1.51 (0.17) % injected dose per gram
Biodistribution of radioactivity, Brain (30 min after injection): 0.49 (0.06) % injected dose per gram
Biodistribution of radioactivity, Brain (60 min after injection): 0.26 (0.03) % injected dose per gram
Biodistribution of radioactivity, Heart (2 min after injection): 6.77 (0.74) % injected dose per gram
Biodistribution of radioactivity, Heart (10 min after injection): 2.69 (0.45) % injected dose per gram
Biodistribution of radioactivity, Heart (30 min after injection): 1.30 (0.41) % injected dose per gram
Biodistribution of radioactivity, Heart (60 min after injection): 0.98 (0.25) % injected dose per gram
Biodistribution of radioactivity, Intestine (2 min after injection): 3.12 (0.85) % injected dose per gram
Biodistribution of radioactivity, Intestine (10 min after injection): 5.06 (1.51) % injected dose per gram
Biodistribution of radioactivity, Intestine (30 min after injection): 15.47 (5.48) % injected dose per gram
Biodistribution of radioactivity, Intestine (60 min after injection): 18.30 (7.21) % injected dose per gram
Biodistribution of radioactivity, Kidney (2 min after injection): 10.87 (2.95) % injected dose per gram
Biodistribution of radioactivity, Kidney (10 min after injection): 13.12 (4.30) % injected dose per gram
Biodistribution of radioactivity, Kidney (30 min after injection): 12.05 (5.44) % injected dose per gram
Biodistribution of radioactivity, Kidney (60 min after injection): 4.95 (1.82) % injected dose per gram
Biodistribution of radioactivity, Liver (2 min after injection): 9.17 (3.45) % injected dose per gram
Biodistribution of radioactivity, Liver (10 min after injection): 8.48 (2.84) % injected dose per gram
Biodistribution of radioactivity, Liver (30 min after injection): 7.64 (2.19) % injected dose per gram
Biodistribution of radioactivity, Liver (60 min after injection): 5.85 (1.09) % injected dose per gram
Biodistribution of radioactivity, Lung (2 min after injection): 9.06 (0.47) % injected dose per gram
Biodistribution of radioactivity, Lung (10 min after injection): 7.01 (0.28) % injected dose per gram
Biodistribution of radioactivity, Lung (30 min after injection): 5.83 (0.55) % injected dose per gram
Biodistribution of radioactivity, Lung (60 min after injection): 5.23 (1.44) % injected dose per gram
Biodistribution of radioactivity, Pancreas (2 min after injection): 4.96 (0.44) % injected dose per gram
Biodistribution of radioactivity, Pancreas (10 min after injection): 2.01 (0.49) % injected dose per gram
Biodistribution of radioactivity, Pancreas (30 min after injection): 1.22 (0.21) % injected dose per gram
Biodistribution of radioactivity, Pancreas (60 min after injection): 0.87 (0.30) % injected dose per gram
Biodistribution of radioactivity, Spleen (2 min after injection): 2.29 (0.36) % injected dose per gram
Biodistribution of radioactivity, Spleen (10 min after injection): 1.64 (0.29) % injected dose per gram
Biodistribution of radioactivity, Spleen (30 min after injection): 0.84 (0.29) % injected dose per gram
Biodistribution of radioactivity, Spleen (60 min after injection): 0.92 (0.07) % injected dose per gram
Biodistribution of radioactivity, Stomach (2 min after injection): 1.59 (0.71) % injected dose per organ
Biodistribution of radioactivity, Stomach (10 min after injection): 2.94 (0.86) % injected dose per organ
Biodistribution of radioactivity, Stomach (30 min after injection): 4.01 (2.29) % injected dose per organ
Biodistribution of radioactivity, Stomach (60 min after injection): 3.49 (2.00) % injected dose per organ
